This note sets out measurements from patent EP0036650A2, “Cephalosporin derivatives, process for their preparation, corresponding compositions, their use in the treatment of diseases and intermediates” (F. HOFFMANN-LA ROCHE & CO. Aktiengesellschaft, priority 1980, dated 1981).

The subject of data set [1] is Neisseria gonorrhoeae. As to the kind of experiment: Minimum inhibitory concentration in vitro. Type of data set: cell-based. The text has this:
(§1) Zum Nachweis der antimikrobiellen Wirksamkeit der erwähnten Produkte wurde das (6R,7R)-7-[2-(2-Amino-5-thiazolyl)-2-[(Z)-methoxyimino]acetamido]-3-[[(2,5-dihydro-2-methyl-5-oxo-as-triazin-3-yl)thio]methyl]-8-oxo-5-thia-1-azabicyclo[4.2.0]oct-2-en-2-carbonsäure-Natriumsalz auf seine Aktivität in vitro gegen verschiedene Krankheitserreger getestet. Nachstehend sind die entsprechenden Mindesthemmkonzentrationen (MIC; µg/ml) zusammengestellt: […]

The subject of data set [2] is Proteus mirabilis. As to the kind of experiment: Minimum inhibitory concentration in vitro. The format is cell-based. The conditions noted are these: ß-Lactamase bildende Stämme.
Description: as §1

Data set [3] concerns Pseudomonas aeruginosa Stamm 2. The experiment in a line: Minimum inhibitory concentration in vitro. Type of data set: cell-based. The conditions noted are these: STAMM2, ß-Lactamase bildende Stämme.
Description: as §1

The subject of data set [4] is Escherichia coli. As to the kind of experiment: Minimum inhibitory concentration in vitro. The format is cell-based. The conditions noted are these: ß-Lactamase bildende Stämme.
Description: as §1

The test system of data set [5] is Serratia marcescens. The experiment in a line: Minimum inhibitory concentration in vitro. Type of data set: cell-based. The conditions noted are these: ß-Lactamase bildende Stämme.
Description: as §1

The subject of data set [6] is Pseudomonas aeruginosa Stamm 1. The experiment in a line: Minimum inhibitory concentration in vitro. Type of data set: cell-based. The conditions noted are these: STAMM1, ß-Lactamase bildende Stämme.
Description: as §1

Data set [7] deals with Proteus vulgaris. As to the kind of experiment: Minimum inhibitory concentration in vitro. The format is cell-based. The conditions noted are these: ß-Lactamase bildende Stämme.
Description: as §1

The test system of data set [8] is Haemophilus influenzae. As to the kind of experiment: Minimum inhibitory concentration in vitro. Type of data set: cell-based.
Description: as §1

Data set [9] relates to Staphylococcus aureus. As to the kind of experiment: Minimum inhibitory concentration in vitro. The format is cell-based.
Description: as §1

Data set [10] concerns Enterobacter cloacae. The experiment in a line: Minimum inhibitory concentration in vitro. Type of data set: cell-based. The conditions noted are these: ß-Lactamase bildende Stämme.
Description: as §1

Data set [11] is described as follows: Toxicity (lethal dose). The format is in vivo.

SMILES strings stand for the structures. Converted amounts (≈) assume the structure as drawn.

Take `CO/N=C(\C(=O)N[C@@H]1C(=O)N2C(C(=O)O)=C(CSc3nc(=O)cnn3C)CS[C@H]12)c1csc(N)n1` [(6R,7R)-7-[2-(2-Amino-4-thiazolyl)-2-[(Z)-methoxyimino]ace-tamido]-3-[[(2,5-dihydro-2-methyl-5-oxo-as-triazin-3-yl)thio]methyl]-8-oxo-5-thia-1-azabicyclo[4.2.0]oct-2-en-2-carbonsäure-Natriumsalz]: the MIC is 0.02 µg/mL (≈ 0.0371 µM) in data set [1]; 0.04 µg/mL (≈ 0.0743 µM) in [2]; 40 µg/mL (≈ 74.3 µM) in data set [3]; 0.04 µg/mL (≈ 0.0743 µM) in [4]; 0.16 µg/mL (≈ 0.297 µM) in data set [5]; 40 µg/mL (≈ 74.3 µM) in data set [6]. For the same compound, the MIC in [7] turned out to be 0.02 µg/mL (≈ 0.0371 µM); in data set [8], 0.02 µg/mL (≈ 0.0371 µM); in [9] it was 2.5 µg/mL (≈ 4.64 µM); in [10] it was 2.5 µg/mL (≈ 4.64 µM). The LD100 is 1000 mg/kg in data set [11] (i.v.), >5000 mg/kg in data set [11] (p.o.) and >5000 mg/kg in [11] (s.c.).
